According to patent US5288905A, “Glycyl urea derivatives as anti-convulsants” (G. D. Searle & Co., priority 1991, dated 1994):

Columns and labels:
[1] = system: mice; assay: Prevention of bicuculline (BIC)-induced convulsions in mice; type: in vivo, male Swiss albino mice; settings: Mus musculus, po; 30 mg/kg orally; bicuculline 0.6 mg/kg intravenously; four groups of five animals; read-out: Percentage of Mice Protected from Bicuculline
Description: (§1) Treatment of a mammal afflicted by or susceptible to certain CNS disorders is accomplished by administration of a therapeutically-effective amount of a compound of Formula I. In particular, Compounds #1-11 of Table II were evaluated by in vitro and in vivo animal model assays to determine the pharmacological properties of such compounds and their likely suitability for use as therapeutic drugs in humans. These biological assays, as described below, consisted of prevention of induced convulsions in mice, determination of acute toxicity in mice and animal behavior assays. Except as otherwise specified, the animals used in the in vivo tests were male Swiss albino mice weight 22 to 33 g [CDl, Charles River, France], housed in groups of 10 on a 12-hour dark-light cycle for at least one week before use and fasted overnight prior to testing.
(§2) Compounds of Formula I were evaluated as inhibitors of convulsions and death induced by different convulsant agents: 3-mercaptopropionic acid (3-MPA; 120 mg/kg subcutaneously), bicuculline (BIC, 0.6 mg/kg intravenously), pentylenetetrazole (PTZ, 55 mg/kg intravenously) and supramaximal electroconvulsive shocks (ECS evoked by a current intensity of 48 mA, 50 Hz. 0.2 sec duration, 10 msec square pulse, corneal electrodes) [W. van Dorsser, D. Barris, A. Cordi and J. Roba, Arch. Int. Pharmacodyn., 266, 239-249 (1983)]. The compounds of the invention were administered orally at a dosage of either 100 mg/kg or 30 mg/kg in a volume of 10 ml/kg each to 5 mice. Tonic convulsions and the number of dead mice were noted. Results are given in Table III as a score which represents the total number of mice protected from convulsions induced by 3-mercaptopropionic acid at dose of 100 mg/kg for two groups of five animals, or the percentage of mice protected from convulsions induced by bicuculline at a dose of 30 mg/kg for four groups of five animals.

[2] = system: mice; assay: Prevention of 3-mercaptopropionic acid (3-MPA)-induced convulsions in mice; type: in vivo, male Swiss albino mice; settings: for Number of Mice Protected From Convulsions Induced by 3-MPA at 100 mg/kg, 30 min interval / Number of Mice Protected From Convulsions Induced by 3-MPA at 100 mg/kg, 2 hr interval: 100 mg/kg orally, 3-MPA 120 mg/kg subcutaneously, two groups of five animals; for Number of Mice Protected From Convulsions Induced by 3-MPA at 100 mg/kg, 30 min interval: 30 min before convulsions induced; for Number of Mice Protected From Convulsions Induced by 3-MPA at 100 mg/kg, 2 hr interval: 2 hr before convulsions induced
Description: as §1, §2
(§3) Based upon data generated from the previously-described anti-convulsant experiments, ED50 values were calculated at which Compound #6 inhibits convulsions induced by the convulsant agents listed in Table IV.

[3] = Acute toxicity in mice after oral administration; design: species or system male Swiss albino mice; settings: mouse, in vivo, mortality over 15 days
Description: as §1
The acute toxicity of compounds of the invention was determined after oral administration of the test compound to mice. Compound to be tested was suspended in a 1% tragacanth gum mucilage, and was administered by means of an intragastric probe to a group of three male mice. Doses used in the test were determined by observing toxic effects on the mice, which doses varied from 3,000 mg/kg down to about 3 mg/kg. The mortality was recorded over a period of 15 days. The LD50 results reported in Table V were calculated according to published methods [Lichtfield and Wilcoxon, J. Pharmacol. Exp. Ther., 96, 99 (1949)] and expressed in mg of test compound per kilogram of mouse body weight.

[4] = system: mice; design: species or system male Swiss albino mice; settings: mouse, in vivo, po
Description: as §1
Behavioral effects of compounds of the invention on animals were determined by observations taken at 5 to 6 hours and at 24 hours after administration of compounds in the acute toxicity studies. Determinations were made based on a method derived from that of S. Irwin [See R. A. Turner, Screening Methods in Pharmacology, Chapter 3, pages 22-34, Academic Press, N.Y. (1965)]. If an anomaly were noted, the observation was extended and smaller doses were tested. Possible types of behavior to be observed are as follows: analgesia (AAG), convulsions (CON), depression (DEP), exophthalmia (EOP), excitation (EXC), hyperalgesia (HAG), hypothermia (ATH), hypotonia (ATN), piloerection (PIE), palpebral ptosis (PTO), reduction of the pinna reflux (RPI), reduction of the rearing reflex (RRE), reduction of the flexion reflex (RRF), sedation (SED), tremors (TRE), cyanosis (CYA), diarrhea (DIA), increase of the pinna reflex (HPI), increase of the flexion reflex (HRF), dyspnea (DYS), toxic (TOX), zero ("0") means no effect. Behaviors observed are reported in Table V by numbers which represent the dose at which the behavior is observed.

[5] = system: mice; assay: Inhibition of convulsions induced by supramaximal electroconvulsive shocks (ECS) in mice; type: in vivo, male Swiss albino mice; settings: Mus musculus, po; ECS 48 mA, 50 Hz, 0.2 sec, corneal electrodes; compound orally; read-out: Inhibition of Convulsions by Cpd. #6 (ED50), ECS
Description: (§4) Treatment of a mammal afflicted by or susceptible to certain CNS disorders is accomplished by administration of a therapeutically-effective amount of a compound of Formula I. In particular, Compounds #1-11 of Table II were evaluated by in vitro and in vivo animal model assays to determine the pharmacological properties of such compounds and their likely suitability for use as therapeutic drugs in humans. These biological assays, as described below, consisted of prevention of induced convulsions in mice, determination of acute toxicity in mice and animal behavior assays. […]
(§5) Compounds of Formula I were evaluated as inhibitors of convulsions and death induced by different convulsant agents: 3-mercaptopropionic acid (3-MPA; 120 mg/kg subcutaneously), bicuculline (BIC, 0.6 mg/kg intravenously), pentylenetetrazole (PTZ, 55 mg/kg intravenously) and supramaximal electroconvulsive shocks (ECS evoked by a current intensity of 48 mA, 50 Hz. 0.2 sec duration, 10 msec square pulse, corneal electrodes) [W. van Dorsser, D. Barris, A. Cordi and J. Roba, Arch. […]
as §3

[6] = system: mice; assay: Inhibition of pentylenetetrazole (PTZ)-induced convulsions in mice; type: in vivo, male Swiss albino mice; settings: Mus musculus, po; convulsant PTZ 55 mg/kg intravenously; compound orally; read-out: Inhibition of Convulsions by Cpd. #6 (ED50), PZT
Description: as §4, §5, §3

[7] = system: rat frontal cortex; assay: Chronic focal epilepsy assay (cobalt powder on rat frontal cortex, EEG spike activity); type: in vivo; settings: ip, intraperitoneal, cobalt-induced spikes, read-out: threshold dose for inhibiting spike activities
Description: In a model of chronic focal epilepsy where cobalt powder is placed on rat frontal cortex, the animals develop, after several days, chronic expression of afterdischarge-like spike activity which can be recorded by EEG. Compound #6 has, when administered by intraperitoneal route, a threshold dose of 200 mg/kg for inhibiting these spike activities with the effect being observed from 30 to 90 minutes.

[8] = system: mice; assay: 5HTP-induced head twitch in mice; type: in vivo, male Swiss albino mice; settings: Mus musculus, po, 2 hours before 5HTP challenge (10 mg/kg i.p.) after nialamide 50 mg/kg i.p.; read-out: ED50 (inhibition of 5HTP-induced head twitches)
Description: as §1
Compound #6 was evaluated for inhibition of head twitches produced in mice by administration of L-5-hydroxytryptophan (5HTP, 10 mg/kg intraperitoneously) after nialamide treatment (50 mg/kg intraperitoneal, 22 hours before the test). The head twitches were counted for 45 min. starting 15 min. after 5HTP administration. [E. Friedmann et al.; Europ. J. Pharmocol., 89, 69-76 (1983)].

Structure (SMILES)	responders at 30 mg/kg [1]	Number of Mice Protected From Convulsions Induced by 3-MPA at 100 mg/kg, 30 min interval [2]	LD50 at 360 h [3]	Behavior (dose at which the behavior is observed : behavior) [4]	Number of Mice Protected From Convulsions Induced by 3-MPA at 100 mg/kg, 2 hr interval [2]	ED50 ([2]; Mus musculus, po, convulsant 3-MPA 120 mg/kg subcutaneously, compound orally, read-out: Inhibition of Convulsions by Cpd. #6 (ED50), 3-MPA)	ED50 [5]	ED50 [6]	minimal effective dose [7]	ED50 [8]
CCCCCCCCNC(=O)NC(=O)CNCCCCC [Compound 1, 1-octyl-3-(2-pentylamino-1-oxoethyl)urea]	35%	0 mice	> 1000 mg/kg	1000:0 mg/kg						
CCCCCNCC(=O)NC(=O)NCCc1ccccc1 [Compound 2, 1-(2-phenylethyl)-3-(2-pentylamino-1-oxoethyl)urea]	25%	3 mice	> 1000 mg/kg	1000:SED, RPI, RRE						
CCCCCCCCNC(=O)NC(=O)CNCCc1ccccc1 [Compound 3, 1-octyl-3-[2-(2-phenylethyl)amino-1-oxoethyl]urea]	55%	6 mice	> 3000 mg/kg	3000:SED, ATN	3 mice					
CCCCCCCCNCC(=O)NC(=O)NCCCCCCCC [Compound 4, 1-octyl-3-(2-octylamino-1-oxoethyl)urea]	35%	4 mice	> 3000 mg/kg	3000:0 mg/kg	3 mice					
O=C(CNCCc1ccccc1)NC(=O)NCCc1ccccc1 [Compound 5, 1-(2-phenylethyl)-3-[2-(2-phenylethyl)amino-1-oxoethyl]urea]	45%	6 mice	1750 mg/kg	3000:TOX, DEP	1 mice					
CCCCCCCCNCC(=O)NC(=O)NCCc1ccccc1 [Compound 6, 1-(2-phenylethyl)-3-(2-octylamino-1-oxoethyl)urea]	35%	9 mice	> 3000 mg/kg	1000:SED, ATN	9 mice	16 mg/kg	60 mg/kg	56 mg/kg	200 mg/kg	200 mg/kg
CCCCCNC(=O)NC(=O)CNCCc1ccccc1 [Compound 7, 1-pentyl-3-[2-(2-phenylethyl)amino-1-oxoethyl]urea]	25%	1 mice	> 3000 mg/kg	1000:SED						
CCCCCNCC(=O)NC(=O)NCCCCC [Compound 8, 1-pentyl-3-(2-pentylamino-1-oxoethyl)urea]	40%	0 mice	> 3000 mg/kg							
CCCCCCCCNCC(=O)NC(=O)NCCCCC [Compound 9, 1-pentyl-3-(2-octylamino-1-oxoethyl)urea]	35%	7 mice	> 1000 mg/kg	1000:0 mg/kg	4 mice					
CNC(=O)NC(=O)CNC(c1ccccc1)c1ccccc1 [Compound 10, 1-methyl-3-(2-diphenylmethylamino-1-oxoethyl)urea]		1 mice								
O=C(CNC(c1ccccc1)c1ccccc1)NC(=O)NCCc1ccccc1 [Compound 11, 1-(2-phenylethyl)-3-(2-diphenylmethylamino-1-oxoethyl)urea]		0 mice								
